In ChEMBL document CHEMBL4507327 (2021):

Columns and labels:
[1] = molecular target: Platelet-activating factor receptor (Homo sapiens) (UniProt P25105); assay: Platelet Activating Factor (PAF) Eurofins-Panlabs radioligand binding assay; parameters: ligand concentration 1 nM; conditions: Compound concentration 10.0 uM
[2] = molecular target: Serine/threonine-protein kinase Nek8 (Homo sapiens, UniProt Q86SG6); assay: Nek8(NEK8LGRI) Takeda global kinase panel
[3] = molecular target: Serine/threonine-protein kinase N2 (Homo sapiens, UniProt Q16513); assay: PKN2 [PRK2(PKN2LGG5)] Takeda global kinase panel
[4] = molecular target: 5-hydroxytryptamine receptor 1B (Homo sapiens) (UniProt P28222); conditions: Compound concentration 10.0 uM
[5] = molecular target: 5-hydroxytryptamine receptor 5A (Homo sapiens) (UniProt P47898); conditions: Compound concentration 10.0 uM
[6] = molecular target: 5-hydroxytryptamine receptor 6 (Homo sapiens) (UniProt P50406); conditions: Compound concentration 10.0 uM
[7] = molecular target: D(1A) dopamine receptor (Homo sapiens) (UniProt P21728); conditions: Compound concentration 10.0 uM
[8] = molecular target: D(1B) dopamine receptor (Homo sapiens) (UniProt P21918); conditions: Compound concentration 10.0 uM
[9] = molecular target: Histamine H1 receptor (Homo sapiens) (UniProt P35367); conditions: Compound concentration 10.0 uM
[10] = molecular target: Histamine H4 receptor (Homo sapiens) (UniProt Q9H3N8); conditions: Compound concentration 10.0 uM
[11] = molecular target: Alpha-2C adrenergic receptor (Homo sapiens) (UniProt P18825); conditions: Compound concentration 10.0 uM
[12] = molecular target: Beta-1 adrenergic receptor (Homo sapiens) (UniProt P08588); conditions: Compound concentration 10.0 uM
[13] = molecular target: Beta-2 adrenergic receptor (Homo sapiens) (UniProt P07550); conditions: Compound concentration 10.0 uM
[14] = molecular target: Muscarinic acetylcholine receptor M3 (Homo sapiens) (UniProt P20309); conditions: Compound concentration 10.0 uM
[15] = molecular target: Beta-3 adrenergic receptor (Homo sapiens) (UniProt P13945); conditions: Compound concentration 10.0 uM
Rattus norvegicus = species on record: Rattus norvegicus; conditions: Compound concentration 10.0 uM
[16] = molecular target: Alpha-1D adrenergic receptor (Homo sapiens) (UniProt P25100); conditions: Compound concentration 10.0 uM
[17] = molecular target: Sigma intracellular receptor 2 (Homo sapiens) (UniProt Q5BJF2); conditions: Compound concentration 10.0 uM
[18] = molecular target: Sigma non-opioid intracellular receptor 1 (Homo sapiens) (UniProt Q99720); conditions: Compound concentration 10.0 uM
[19] = molecular target: Beta-1 adrenergic receptor (Homo sapiens) (UniProt P08588); conditions: Compound concentration 10.0 uM; remark: listed apart in the source
[20] = molecular target: voltage-gated sodium channel, site 2 (Rattus norvegicus, UniProt F1LQQ7+O08562+O88420+O88457+P04774+P04775+P08104+P15389+P15390+Q62968); assay: Inhibition of Sodium Channel, Site 2 at 10 µM in the Eurofins-Panlabs radioligand binding assay (Eurofins_assay_279510); type: protein assay; parameters: ligand concentration 5 nM, non-specific ligand with concentration 100 µM Veratridine, incubation time 60 min, incubation temperature 37 °C; conditions: male, Wistar, whole brain (except cerebellum) membranes of rats, probe [3H] Batrachotoxinin, compound concentration 10 uM
[21] = molecular target: 5'-AMP-activated protein kinase catalytic subunit alpha-1 (Homo sapiens, UniProt Q13131); assay: AMPKalpha1(PRA1PGF1) Takeda global kinase panel
[22] = molecular target: RAC-alpha serine/threonine-protein kinase (Homo sapiens, UniProt P31749); assay: Akt1 [PKBalpha(AKT1PHFB)] Takeda global kinase panel
[23] = molecular target: Calcium/calmodulin-dependent protein kinase type 1D (Homo sapiens, UniProt Q8IU85); assay: CaMK1delta(CA1DLGT5) Takeda global kinase panel
[24] = molecular target: Calcium/calmodulin-dependent protein kinase type II subunit delta (Homo sapiens, UniProt Q13557); assay: CaMK2delta(CA2DCGT1) Takeda global kinase panel
[25] = molecular target: Epithelial discoidin domain-containing receptor 1 (Homo sapiens, UniProt Q08345); assay: DDR1(DDR1LGF1) Takeda global kinase panel
[26] = molecular target: Interleukin-1 receptor-associated kinase 1 (Homo sapiens, UniProt P51617); assay: IRAK1(IRK1LGF1) Takeda global kinase panel
[27] = molecular target: Dual specificity mitogen-activated protein kinase kinase 7 (Homo sapiens, UniProt O14733); assay: MAP2K7(M2K7CGRI) Takeda global kinase panel
[28] = molecular target: Mitogen-activated protein kinase kinase kinase 2 (Homo sapiens, UniProt Q9Y2U5); assay: MEKK2 [MAP3K2(M3K2LGF1)] Takeda global kinase panel
[29] = molecular target: Hepatocyte growth factor receptor (Homo sapiens, UniProt P08581); assay: Met([…]) Takeda global kinase panel
Misshapen-like kinase 1 = Misshapen-like kinase 1 (Homo sapiens, UniProt Q8N4C8); assay: MINK [ZC3(MIN1LGF1)] Takeda global kinase panel
[30] = molecular target: Macrophage-stimulating protein receptor (Homo sapiens, UniProt Q04912); assay: Ron(MST1MGY1) Takeda global kinase panel
[31] = molecular target: Protein kinase C gamma type (Homo sapiens, UniProt P05129); assay: PKCgamma(PRKGLGP1) Takeda global kinase panel
[32] = molecular target: cGMP-dependent protein kinase 1 (Homo sapiens, UniProt Q13976); assay: PKG1(PRG1LFP1) Takeda global kinase panel
[33] = molecular target: Receptor-interacting serine/threonine-protein kinase 4 (Homo sapiens, UniProt P57078); assay: ANKRD3(RIP4LGN1) Takeda global kinase panel
[34] = molecular target: Ribosomal protein S6 kinase alpha-3 (Homo sapiens, UniProt P51812); assay: RSK2(R6A3CGE1) Takeda global kinase panel
[35] = molecular target: Dual specificity testis-specific protein kinase 1 (Homo sapiens, UniProt Q15569); assay: TESK1(TES1LGRA) Takeda global kinase panel
[36] = molecular target: Tyrosine-protein kinase ZAP-70 (Homo sapiens, UniProt P43403); assay: ZAP70(ZAP7LGP1) Takeda global kinase panel
[37] = molecular target: Bromodomain-containing protein 2 (Homo sapiens, UniProt P25440); assay: BRD2(BRD2LHRC) Takeda global kinase panel
[38] = molecular target: Histamine H2 receptor (Homo sapiens) (UniProt P25021); conditions: Compound concentration 10.0 uM

Sequence of Beta-1 adrenergic receptor (Homo sapiens) (P08588 whole entry, looked up): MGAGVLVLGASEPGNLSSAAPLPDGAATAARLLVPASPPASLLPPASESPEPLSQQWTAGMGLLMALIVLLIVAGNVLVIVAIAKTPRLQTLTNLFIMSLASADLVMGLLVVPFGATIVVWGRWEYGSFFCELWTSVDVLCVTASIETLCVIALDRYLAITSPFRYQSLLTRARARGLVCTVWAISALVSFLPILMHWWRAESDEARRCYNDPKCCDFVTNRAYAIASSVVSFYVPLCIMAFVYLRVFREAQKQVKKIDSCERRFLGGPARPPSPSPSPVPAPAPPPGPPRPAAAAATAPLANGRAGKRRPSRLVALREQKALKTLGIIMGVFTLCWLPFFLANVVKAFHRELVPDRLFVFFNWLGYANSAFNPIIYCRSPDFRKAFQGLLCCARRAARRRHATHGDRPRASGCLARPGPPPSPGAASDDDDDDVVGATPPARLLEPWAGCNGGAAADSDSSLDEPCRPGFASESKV
Sequence of Beta-3 adrenergic receptor (Homo sapiens) (P13945 whole entry, looked up): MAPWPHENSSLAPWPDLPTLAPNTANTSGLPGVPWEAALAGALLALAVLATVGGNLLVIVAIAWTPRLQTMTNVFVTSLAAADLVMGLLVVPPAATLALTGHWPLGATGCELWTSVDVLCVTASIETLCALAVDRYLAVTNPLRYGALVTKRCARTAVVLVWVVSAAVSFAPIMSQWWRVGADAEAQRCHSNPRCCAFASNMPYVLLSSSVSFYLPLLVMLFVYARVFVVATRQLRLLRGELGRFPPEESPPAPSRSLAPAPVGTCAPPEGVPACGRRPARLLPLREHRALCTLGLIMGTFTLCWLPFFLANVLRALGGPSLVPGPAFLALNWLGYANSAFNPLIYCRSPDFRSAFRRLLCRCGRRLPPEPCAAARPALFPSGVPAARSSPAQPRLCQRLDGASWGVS
Sequence of Ribosomal protein S6 kinase alpha-3 (P51812 whole entry): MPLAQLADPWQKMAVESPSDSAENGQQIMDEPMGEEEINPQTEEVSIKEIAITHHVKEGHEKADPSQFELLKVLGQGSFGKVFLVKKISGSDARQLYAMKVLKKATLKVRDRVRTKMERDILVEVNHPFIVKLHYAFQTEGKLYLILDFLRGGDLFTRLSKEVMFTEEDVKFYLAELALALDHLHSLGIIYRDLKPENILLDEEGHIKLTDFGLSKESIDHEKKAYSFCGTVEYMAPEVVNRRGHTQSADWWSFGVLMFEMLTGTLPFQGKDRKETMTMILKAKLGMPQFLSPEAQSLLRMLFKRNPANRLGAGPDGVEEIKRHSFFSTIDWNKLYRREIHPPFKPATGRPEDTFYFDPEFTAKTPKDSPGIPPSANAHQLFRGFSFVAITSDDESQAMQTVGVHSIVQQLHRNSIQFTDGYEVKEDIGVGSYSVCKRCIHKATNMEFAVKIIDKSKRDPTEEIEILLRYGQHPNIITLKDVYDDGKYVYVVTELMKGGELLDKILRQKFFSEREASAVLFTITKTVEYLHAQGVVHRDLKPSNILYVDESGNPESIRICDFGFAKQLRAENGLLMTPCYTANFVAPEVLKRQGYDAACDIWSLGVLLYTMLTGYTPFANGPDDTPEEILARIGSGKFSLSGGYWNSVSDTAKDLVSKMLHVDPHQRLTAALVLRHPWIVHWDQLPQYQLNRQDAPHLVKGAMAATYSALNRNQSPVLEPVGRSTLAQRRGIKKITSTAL
Sequence of 5-hydroxytryptamine receptor 5A (Homo sapiens) (P47898 whole entry): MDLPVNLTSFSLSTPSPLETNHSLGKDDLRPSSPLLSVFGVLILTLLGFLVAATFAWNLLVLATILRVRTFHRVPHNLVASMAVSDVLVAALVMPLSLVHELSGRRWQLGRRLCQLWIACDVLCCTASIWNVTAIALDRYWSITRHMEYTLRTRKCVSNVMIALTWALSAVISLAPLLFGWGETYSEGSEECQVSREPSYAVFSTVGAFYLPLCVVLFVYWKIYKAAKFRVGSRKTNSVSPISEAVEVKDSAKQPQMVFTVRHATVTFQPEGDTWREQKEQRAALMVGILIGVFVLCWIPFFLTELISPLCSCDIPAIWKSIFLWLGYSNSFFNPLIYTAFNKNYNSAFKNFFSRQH
Sequence of Macrophage-stimulating protein receptor (Q04912 25-304 limits assumed): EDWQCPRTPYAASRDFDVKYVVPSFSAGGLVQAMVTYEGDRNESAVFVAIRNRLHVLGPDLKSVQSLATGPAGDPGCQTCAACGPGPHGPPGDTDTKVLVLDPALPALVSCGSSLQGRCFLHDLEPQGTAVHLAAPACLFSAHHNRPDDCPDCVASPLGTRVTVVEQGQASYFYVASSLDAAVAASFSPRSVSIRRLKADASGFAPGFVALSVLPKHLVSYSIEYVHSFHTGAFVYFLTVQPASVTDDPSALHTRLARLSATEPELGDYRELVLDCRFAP
Sequence of Macrophage-stimulating protein receptor (Q04912 310-1400 limits assumed): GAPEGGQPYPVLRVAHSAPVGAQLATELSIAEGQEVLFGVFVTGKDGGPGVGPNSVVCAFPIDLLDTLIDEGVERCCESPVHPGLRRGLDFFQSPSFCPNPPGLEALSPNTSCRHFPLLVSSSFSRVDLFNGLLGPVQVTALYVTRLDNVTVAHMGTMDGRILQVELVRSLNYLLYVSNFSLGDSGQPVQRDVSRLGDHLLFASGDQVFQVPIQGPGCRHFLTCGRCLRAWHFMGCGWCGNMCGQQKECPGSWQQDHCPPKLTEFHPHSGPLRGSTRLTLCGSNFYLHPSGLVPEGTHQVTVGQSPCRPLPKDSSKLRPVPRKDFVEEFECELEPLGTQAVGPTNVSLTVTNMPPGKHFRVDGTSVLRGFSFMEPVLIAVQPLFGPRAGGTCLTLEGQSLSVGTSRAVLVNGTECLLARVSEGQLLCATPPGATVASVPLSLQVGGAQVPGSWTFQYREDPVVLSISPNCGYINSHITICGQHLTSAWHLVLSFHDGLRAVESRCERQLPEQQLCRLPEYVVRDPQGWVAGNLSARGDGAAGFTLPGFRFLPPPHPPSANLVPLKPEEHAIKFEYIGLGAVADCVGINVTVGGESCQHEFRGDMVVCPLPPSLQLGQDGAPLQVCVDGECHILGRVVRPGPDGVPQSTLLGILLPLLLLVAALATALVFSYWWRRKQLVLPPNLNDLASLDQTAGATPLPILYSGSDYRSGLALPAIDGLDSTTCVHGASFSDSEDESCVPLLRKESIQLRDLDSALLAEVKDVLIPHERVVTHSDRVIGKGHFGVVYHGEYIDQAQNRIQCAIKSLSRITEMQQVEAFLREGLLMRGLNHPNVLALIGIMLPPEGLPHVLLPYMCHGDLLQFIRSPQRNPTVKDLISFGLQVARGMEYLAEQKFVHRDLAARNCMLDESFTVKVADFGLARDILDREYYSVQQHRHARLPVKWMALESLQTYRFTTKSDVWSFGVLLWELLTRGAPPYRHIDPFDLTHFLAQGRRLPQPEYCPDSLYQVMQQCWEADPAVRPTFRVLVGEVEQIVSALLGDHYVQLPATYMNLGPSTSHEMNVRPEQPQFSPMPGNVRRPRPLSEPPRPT
Sequence of Receptor-interacting serine/threonine-protein kinase 4 (P57078 whole entry): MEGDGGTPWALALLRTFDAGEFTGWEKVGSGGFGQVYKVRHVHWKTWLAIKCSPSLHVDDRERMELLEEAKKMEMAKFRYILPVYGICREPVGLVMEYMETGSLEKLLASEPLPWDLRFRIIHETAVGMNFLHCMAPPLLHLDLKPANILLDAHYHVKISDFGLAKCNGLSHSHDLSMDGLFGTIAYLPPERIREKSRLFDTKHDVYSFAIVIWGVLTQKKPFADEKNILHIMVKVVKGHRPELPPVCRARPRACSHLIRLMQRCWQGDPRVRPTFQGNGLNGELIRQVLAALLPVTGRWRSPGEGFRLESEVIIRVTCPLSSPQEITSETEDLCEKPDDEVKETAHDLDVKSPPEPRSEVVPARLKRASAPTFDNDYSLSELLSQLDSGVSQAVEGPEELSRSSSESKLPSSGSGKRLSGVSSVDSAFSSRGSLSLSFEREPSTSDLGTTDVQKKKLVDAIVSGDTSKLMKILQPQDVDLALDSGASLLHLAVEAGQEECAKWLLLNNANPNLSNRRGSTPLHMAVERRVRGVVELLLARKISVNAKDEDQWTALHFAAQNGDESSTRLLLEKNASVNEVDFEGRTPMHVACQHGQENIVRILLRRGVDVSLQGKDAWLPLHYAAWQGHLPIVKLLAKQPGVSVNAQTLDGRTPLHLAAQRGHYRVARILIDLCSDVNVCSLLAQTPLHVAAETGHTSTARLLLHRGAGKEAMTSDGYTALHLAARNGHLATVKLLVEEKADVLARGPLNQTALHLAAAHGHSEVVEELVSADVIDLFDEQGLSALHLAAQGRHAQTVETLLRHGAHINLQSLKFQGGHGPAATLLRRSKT

Which inhibition [1] does the source give for CN1C(=O)[C@@H](N2CCc3cn(Cc4ccccc4)nc3C2=O)COc2ccccc21 [TP-030-1] here?
The inhibition was 2%.

And the IC50 [2]?
Its IC50 is 1000 nM.

What about the IC50 [3] of the same compound?
Its IC50 is 1000 nM.

What about the inhibition [4] of the same compound?
Its inhibition is 0.99%.

What about the inhibition [5] of the same compound?
Its inhibition is 21.1%.

And the inhibition [6]?
The inhibition was -3.95%.

And the inhibition [7]?
Its inhibition is 18.8%.

And the inhibition [8]?
The inhibition was 1.77%.

And the inhibition [9]?
Its inhibition is 20.5%.

And the inhibition [10]?
Its inhibition is 6.09%.

What about the inhibition [11] of the same compound?
The inhibition was 34.7%.

What about the inhibition [12] of the same compound?
Its inhibition is 5.21%.

What about the inhibition [13] of the same compound?
The inhibition was 9.59%.

What about the inhibition [14] of the same compound?
Its inhibition is 0.09%.

What about the inhibition [15] of the same compound?
The inhibition was 9.8%.

What about the inhibition (Rattus norvegicus) of the same compound?
Its inhibition is 68.7%.

What about the inhibition [16] of the same compound?
Its inhibition is -0.3%.

What about the inhibition [17] of the same compound?
The inhibition was 27%.

And the inhibition [18]?
Its inhibition is -1.9%.

What about the inhibition [19] of the same compound?
Its inhibition is -8%.

Which results are given for CN1C(=O)[C@@H](N2CCc3cn(CC4CCS(=O)(=O)CC4)nc3C2=O)COc2ccccc21 [TP-030n]?
inhibition at 60 min, 10 µM [20]: 9% (not active); IC50 [21]: 1000 nM; IC50 [22]: 1000 nM; IC50 [23]: 1000 nM; IC50 [24]: 1000 nM; IC50 [25]: 1000 nM; IC50 [26]: 1000 nM; IC50 [27]: 1000 nM; IC50 [28]: 1000 nM; IC50 [29]: 1000 nM; IC50 (Misshapen-like kinase 1): 1000 nM; IC50 [30]: 1000 nM; IC50 [31]: 1000 nM; IC50 [32]: 1000 nM; IC50 [33]: 1000 nM; IC50 [34]: 1000 nM; IC50 [35]: 1000 nM; IC50 [36]: 1000 nM; IC50 [37]: 1000 nM; inhibition [38]: -10%
